Experiment: Adverse events (CTCAE 4.0) under apatinib plus gefitinib
Format: in vivo, human
[1] = Apatinib 500 mg Cohort (n = 6), with gefitinib 250 mg, treatment‐related AE, patients (%)

N#CC1(c2ccc(NC(=O)c3cccnc3NCc3ccncc3)cc2)CCCC1 [Apatinib]
5 (83.3%): Elevated ALT, ALL [1]
4 (66.7%): Diarrhea, ALL [1] | Elevated ALT, Grade 1–2 [1] | Hypertension, ALL [1] | Proteinuria, ALL [1]
3 (50%): Elevated AST, Grade 1–2 [1]
6 (100%): Rash, ALL [1] | Rash, Grade 1–2 [1]
0: Abdominal distention, ALL [1] | Abdominal distention, Grade 1–2 [1] | Abdominal distention, Grade 3–4 [1] | Blurred vision, Grade 3–4 [1] | Cough, Grade 3–4 [1] | Dizziness, Grade 3–4 [1] | Dry skin, Grade 3–4 [1] | Dysgeusia, ALL [1] | Dysgeusia, Grade 1–2 [1] | Dysgeusia, Grade 3–4 [1] | Eczema, ALL [1] | Eczema, Grade 1–2 [1] | Eczema, Grade 3–4 [1] | Elevated AST, Grade 3–4 [1] | Epistaxis, Grade 3–4 [1] | Fatigue, Grade 3–4 [1] | Gastrointestinal bleeding, ALL [1] | Gastrointestinal bleeding, Grade 1–2 [1] | Gastrointestinal bleeding, Grade 3–4 [1] | HFSR, Grade 3–4 [1] | Haematuria, ALL [1] | Haematuria, Grade 1–2 [1] | Haematuria, Grade 3–4 [1] | Headache, ALL [1] | Headache, Grade 1–2 [1] | Headache, Grade 3–4 [1] | Hematochezia, ALL [1] | Hematochezia, Grade 1–2 [1] | Hematochezia, Grade 3–4 [1] | Increased bilirubin, Grade 3–4 [1] | Increased creatinine, Grade 3–4 [1] | Leukopenia, Grade 3–4 [1] | Nausea, Grade 3–4 [1] | Neutropenia, Grade 3–4 [1] | Oulorrhagia, ALL [1] | Oulorrhagia, Grade 1–2 [1] | Oulorrhagia, Grade 3–4 [1] | Paronychia, ALL [1] | Paronychia, Grade 1–2 [1] | Paronychia, Grade 3–4 [1] | Periodontitis, ALL [1] | Periodontitis, Grade 1–2 [1] | Periodontitis, Grade 3–4 [1] | Pharyngalgia, ALL [1] | Pharyngalgia, Grade 1–2 [1] | Pharyngalgia, Grade 3–4 [1] | Pneumonia (non‐interstitial), ALL [1] | Pneumonia (non‐interstitial), Grade 1–2 [1] | Pneumonia (non‐interstitial), Grade 3–4 [1] | Pruritus, Grade 3–4 [1] | Rash, Grade 3–4 [1] | Stomatitis, ALL [1] | Stomatitis, Grade 1–2 [1] | Stomatitis, Grade 3–4 [1] | Thrombocytopenia, Grade 3–4 [1] | Trachyphonia, Grade 3–4 [1] | Vomiting, Grade 3–4 [1]
1 (16.7%): Blurred vision, ALL [1] | Blurred vision, Grade 1–2 [1] | Cough, ALL [1] | Cough, Grade 1–2 [1] | Diarrhea, Grade 3–4 [1] | Dizziness, ALL [1] | Dizziness, Grade 1–2 [1] | Dry skin, ALL [1] | Dry skin, Grade 1–2 [1] | Elevated ALT, Grade 3–4 [1] | Epistaxis, ALL [1] | Epistaxis, Grade 1–2 [1] | Fatigue, ALL [1] | Fatigue, Grade 1–2 [1] | Hypertension, Grade 3–4 [1] | Increased bilirubin, ALL [1] | Increased bilirubin, Grade 1–2 [1] | Increased creatinine, ALL [1] | Increased creatinine, Grade 1–2 [1] | Leukopenia, ALL [1] | Leukopenia, Grade 1–2 [1] | Neutropenia, ALL [1] | Neutropenia, Grade 1–2 [1] | Pruritus, ALL [1] | Pruritus, Grade 1–2 [1] | Trachyphonia, ALL [1] | Trachyphonia, Grade 1–2 [1]
3 (50.0%): Diarrhea, Grade 1–2 [1] | Elevated AST, ALL [1] | Hypertension, Grade 1–2 [1] | Nausea, ALL [1] | Nausea, Grade 1–2 [1]
2 (33.3%): HFSR, ALL [1] | HFSR, Grade 1–2 [1] | Proteinuria, Grade 1–2 [1] | Proteinuria, Grade 3–4 [1] | Thrombocytopenia, ALL [1] | Thrombocytopenia, Grade 1–2 [1] | Vomiting, ALL [1] | Vomiting, Grade 1–2 [1]
Hypertension: Serious Adverse Event (Patient 007, Apatinib Dose 500 mg, Discontinuation, Correlation with Apatinib Yes, Remission)

Source: article PMC7403827 (Clinical and Translational Medicine, 2020)
